Tests used:
HCT-116 [1] = assay: Antiproliferative activity against human HCT-116 cells measured upto 72 hrs by CCK-8 method; assay type: functional
SW480 [2] = assay: Antiproliferative activity against human SW480 cells measured upto 72 hrs by CCK-8 method; assay type: functional
LoVo [3] = assay: Antiproliferative activity against human LoVo cells measured upto 72 hrs by CCK-8 method; assay type: functional
HCT-116 [4] = assay: Antiproliferative activity against human HCT-116 cells measured after 72 hrs by SRB method; assay type: functional, cell-based; conditions: HCT-116, 72 h
HT-29 [5] = assay: Antiproliferative activity against human HT-29 cells measured after 72 hrs by SRB method; assay type: functional, cell-based; conditions: HT-29, 72 h
HT-29 [6] = assay: Antiproliferative activity against human HT-29 cells assessed as inhibition of cell viability incubated for 24 hrs by CCK-8 method; assay type: functional, cell-based; conditions: HT-29, 24 h
SW480 [7] = assay: Antiproliferative activity against human SW480 cells assessed as inhibition of cell growth incubated for 24 hrs by CCK-8 method; assay type: functional, cell-based; conditions: SW480, 24 h
HCT-116 [8] = assay: Antiproliferative activity against human HCT-116 cells expressing wild type p53 measured after 48 hrs by MTT assay; assay type: functional, cell-based; conditions: HCT-116, 48 h
COLO 320 = assay: Antiproliferative activity in human COLO 320 cells incubated for 24 hrs by MTT assay; assay type: functional
SW-620 [9] = assay: Antiproliferative activity against human SW620 cells assessed as inhibition of cell growth; assay type: functional, cell-based
HCT-116 [10] = assay: Antiproliferative activity against human HCT-116 cells assessed as inhibition of cell growth; assay type: functional, cell-based
HT-29 [11] = assay: Cytotoxicity against human HT-29 cells measured after 24 hrs by MTT assay; assay type: functional, cell-based; conditions: HT-29, 24 h
HCT-116 [12] = assay: Cytotoxicity against human HCT-116 cells measured after 24 hrs by MTT assay; assay type: functional, cell-based; conditions: HCT-116, 24 h
HCT-116 [13] = assay: Antiproliferative activity against human HCT-116 cells; assay type: functional, cell-based; conditions: Homo sapiens, HCT-116
HT-29 [14] = assay: Cytotoxicity against human HT-29 cells; assay type: functional, cell-based
KM12 = assay: Cytotoxicity against human KM12 cells; assay type: functional, cell-based
COLO 205 = assay: Cytotoxicity against human COLO 205 cells; assay type: functional, cell-based
SW480 [15] = assay: Antiproliferative activity against human SW480 cells incubated for 24 hrs by CCK-8 method; assay type: functional, cell-based
SW 1116 = assay: Antiproliferative activity against human SW 1116 cells incubated for 24 hrs by CCK-8 method; assay type: functional, cell-based
HCT-116 [16] = assay: Cytotoxicity against human HCT-116 cells assessed as inhibition of cell proliferation measured after 72 hrs by SRB method; assay type: functional, cell-based
HCT-116 [17] = assay: Cytotoxicity against human HCT-116 cells assessed as inhibition of cell growth incubated for 24 hrs by MTT assay; assay type: functional
HCT-8 = assay: Antiproliferative activity against human HCT-8 cells measured after 48 hrs by MTT assay; assay type: functional, cell-based; conditions: HCT-8, 48 h
LoVo [18] = assay: Antiproliferative activity against human LoVo cells measured after 48 hrs by MTT assay; assay type: functional, cell-based
HCT-116 [19] = assay: Antiproliferative activity against human HCT-116 cells measured after 48 hrs by MTT assay; assay type: functional, cell-based; conditions: HCT-116, 48 h
HCT-116 [20] = assay: Antiproliferative activity against human HCT-116 cells assessed as inhibition of cell viability; assay type: functional, cell-based
CT26 = assay: Antiproliferative activity against mouse CT26 cells assessed as inhibition of cell viability; assay type: functional, cell-based
HCT-116 [21] = assay: Antiproliferative activity against human HCT-116 cells assessed as inhibition of cell growth measured after 24 hrs by CellTiter 96 Aqueous One Solution Cell Proliferation Assay; assay type: functional, cell-based; conditions: HCT-116, 24 h
SW480 [22] = assay: Antiproliferative activity against human SW480 cells assessed as inhibition of cell growth measured after 24 hrs by CellTiter 96 Aqueous One Solution Cell Proliferation Assay; assay type: functional, cell-based; conditions: SW480, 24 h
RKO = assay: Cytotoxicity against human RKO cells assessed as inhibition of cell proliferation measured after 48 hrs by MTT assay; assay type: functional, cell-based
HCT-116 [23] = assay: Cytotoxicity against human HCT-116 cells assessed as inhibition of cell proliferation measured after 48 hrs by MTT assay; assay type: functional, cell-based; conditions: HCT-116, 48 h
SW-620 [24] = assay: Cytotoxicity against human SW620 cells assessed as inhibition of cell proliferation measured after 48 hrs by MTT assay; assay type: functional, cell-based; conditions: SW-620, 48 h
Caco-2 = assay: Antiproliferative activity against human Caco-2 cells measured after 24 hrs by MTT assay; assay type: functional, cell-based; conditions: Caco-2, 24 h
HCT-116 [25] = assay: Cytotoxicity against human HCT-116 cells measured after 48 hrs by MTT colorimetric assay; assay type: functional, cell-based; conditions: HCT-116, 48 h
HCT-116 [26] = assay: Antiproliferative activity against human HCT-116 cells assessed as inhibition of cell growth measured upto 72 hrs by CCK-8 method; assay type: functional, cell-based; conditions: HCT-116, 72 h

C[C@H]1[C@H](C)CC[C@]2(C(=O)O[C@@H]3O[C@H](CO[C@@H]4O[C@H](CO)[C@@H](O[C@@H]5O[C@@H](C)[C@H](O)[C@@H](O)[C@H]5O)[C@H](O)[C@H]4O)[C@@H](O)[C@H](O)[C@H]3O)CC[C@]3(C)C(=CC[C@@H]4[C@@]5(C)C[C@@H](O)[C@H](O)[C@@](C)(CO)[C@@H]5CC[C@]43C)[C@H]12
IC (HCT-116 [1]): 2 µM
IC (SW480 [2]): 2 µM
IC (LoVo [3]): 2 µM

O=C(Nc1ccc([N+](=O)[O-])cc1Cl)c1cc(Cl)ccc1O [NICLOSAMIDE]
IC50 (HCT-116 [4]): 0.32 µM
IC50 (HT-29 [5]): 4.66 µM

CC(CN1c2ccccc2Sc2ccccc21)N(C)C (centres undefined) [PROMETHAZINE]
IC50 (HT-29 [6]): 27.3 µM
IC50 (SW480 [7]): 33 µM

Cc1c(CO)c(CO)c2n1[C@H](c1ccccc1)SC2
IC50 (HCT-116 [8]): 0.97 µM

O=c1c(O)c(-c2ccc(O)c(O)c2)oc2cc(O)cc(O)c12 [QUERCETIN]
IC (COLO 320): 50 µM

COC(=O)[C@H](C)NC(=O)N[C@]1(C)CC[C@]2(C)CC[C@]3(C)C4=CC=C5C(=CC(=O)C(O)=C5C)[C@]4(C)CC[C@@]3(C)[C@@H]2C1
IC50 (SW-620 [9]): 0.28 µM
IC50 (HCT-116 [10]): 0.28 µM

C[C@@H]1CC[C@@]2(OC1)O[C@H]1C[C@H]3[C@]4(C)CC=C5C[C@@H](O[C@@H]6O[C@H](CO)[C@@H](O[C@@H]7O[C@@H](C)[C@H](O[C@@H]8O[C@@H](C)[C@H](O)[C@@H](O)[C@@H]8O)[C@@H](O)[C@H]7O)[C@H](O)[C@H]6O[C@@H]6O[C@@H](C)C(O)[C@@H](O)[C@H]6O)CC[C@]5(C)[C@H]4CC[C@]3(C)[C@H]1[C@@H]2C (some centres undefined)
IC50 (HT-29 [11]): 1.89 µM
IC50 (HCT-116 [12]): 3.73 µM

COc1cc(C[C@@H](CO[C@@H]2O[C@H](CO)[C@@H](O)[C@H](O)[C@H]2O)[C@H](CO[C@@H]2O[C@H](CO)[C@@H](O)[C@H](O)[C@H]2O)Cc2ccc(O)c(OC)c2)ccc1O
IC50 (HCT-116 [13]): 24.5 µM

c1ccc(-c2ccc(-c3csc(N/N=C4\CCc5ccccc54)n3)cc2)cc1
IC50 (HT-29 [14]): 0.44 µM
IC50 (KM12): 0.41 µM
IC50 (COLO 205): 0.98 µM

IVERMECTIN
IC50 (SW480 [15]): 15.3 µM
IC50 (SW 1116): 6.27 µM

C/C=C\C(=O)O[C@@H]1C[C@H]2O[C@@H]3C=C(C)C(=O)C[C@]3(C)[C@]1(C)[C@]21CO1 [TRICHOTHECIN]
IC50 (HCT-116 [16]): 0.25 µM

NCCCNCCCCNCCCN1C(=O)c2ccc3c4c(ccc(c24)C1=O)C(=O)N(CCCNCCCCNCCCN)C3=O
IC (HCT-116 [17]): 1 µM

CO[C@H]1C(=O)[C@]2(C)[C@@H](OC)C[C@H]3OC[C@@]3(OC(C)=O)[C@H]2[C@H](OC(=O)c2ccccc2)[C@]2(O)C[C@H](OC(=O)[C@H](O)[C@@H](NC(=O)OC(C)(C)C)c3ccccc3)C(C)=C1C2(C)C [CABAZITAXEL]
IC50 (HCT-8): 0.532 µM
IC50 (LoVo [18]): 0.063 µM
IC50 (HCT-116 [19]): 0.029 µM

C/C=C1/CN(C)[C@H]2Cc3c([nH]c4ccccc34)[C@H](c3cc4[nH]c5c(c4cc3OC)CCN3C[C@@H]4C[C@H](CC)[C@H]3[C@@]5(C(=O)OC)C4)C[C@@H]1C2C(=O)OC (some centres undefined)
IC50 (HCT-116 [20]): 4.1 µM
IC50 (CT26): 1.38 µM

C[C@@H]1CC[C@]2(C(=O)O)CC[C@]3(C)C(=CC[C@@H]4[C@@]5(C)CC[C@H](O[C@@H]6OC[C@H](O)[C@H](O)[C@H]6O)C(C)(C)[C@@H]5CC[C@]43C)[C@@H]2[C@]1(C)O
IC50 (HCT-116 [21]): 10.8 µM
IC50 (SW480 [22]): 11.3 µM

CC(=O)O[C@H]1[C@H]2O[C@]23[C@@H]2CC[C@@H]4C[C@@H](O)CC[C@]4(C)[C@H]2CC[C@]3(C)[C@H]1c1ccc(=O)oc1 [CINOBUFAGIN]
IC50 (RKO): 0.182 µM
IC50 (HCT-116 [23]): 0.782 µM
IC50 (SW-620 [24]): 0.364 µM

C[S+]([O-])CCCCN=C=S (centres undefined) [SULFORAPHANE]
IC50 (Caco-2): 55.3 µM

CC(=O)Oc1ccccc1C(=O)Nc1ncc([N+](=O)[O-])s1 [NITAZOXANIDE]
IC50 (HCT-116 [25]): 11.2 µM

CC(=O)Oc1ccccc1C(=O)O [ASPIRIN]
IC50 (HCT-116 [26]): 8000 µM
